# According to patent US6706740B2, “Fungicidal heterocyclic aromatic amides and their compositions, methods of use and preparation” (Dow AgroSciences LLC, priority 1999, dated 2004):
# Like-named read-outs stand apart in the source and are kept apart here.
# Legend:
# [1] = test system: Rhizoctonia solani (RHIZSO); assay: microbe, parasite or virus in culture; type: cell-based; conditions: Rhizoctonia solani, read-out: RHIZSO in vitro Growth Inhibition
# [2] = test system: Phytophthora infestans (PHYTIN); assay: microbe, parasite or virus in culture; type: cell-based; conditions: Phytophthora infestans, read-out: PHYTIN in vitro Growth Inhibition
# [3] = test system: Puccinia recondita—PUCCRT; assay: Brown Rust of Wheat, in vivo whole plant, 24 Hour Protectant; conditions: for pest or weed control at 100 ppm: Puccinia, read-out: PUCCRT in vivo 1 Day Protectant
# [4] = test system: Mycosphaerella graminicola (Septoria tritici—SEPTTR); assay: In vitro fungal growth inhibition, Mycosphaerella graminicola (SEPTTR); type: cell-based; conditions: Zymoseptoria tritici, read-out: SEPTTR in vitro Growth Inhibition
# Septoria tritici—SEPTTR = assay: Leaf Blotch of Wheat, in vivo whole plant, 24 Hour Protectant
# Erysiphe graminis—ERYSGT = assay: Powdery Mildew of Wheat, in vivo whole plant, 24 Hour Protectant; conditions: for pest or weed control at 100 ppm: Erysiphe, read-out: ERYSGT in vivo 1 Day Protectant
# Ustilago maydis (USTIMA) = assay: microbe, parasite or virus in culture; type: cell-based; conditions: Mycosarcoma maydis, read-out: USTIMA in vitro Growth Inhibition
# [5] = test system: Phytophthora infestans—PHYTIN; assay: whole plant or invertebrate; type: in vivo; conditions: Phytophthora, in Solanum lycopersicum, 24 h, read-out: PHYTIN in vivo 1 Day Protectant
# [6] = test system: Leptosphaeria nodorum—LEPTNO; assay: Glume Blotch of Wheat, in vivo whole plant, 24 Hour Protectant; conditions: for pest or weed control at 100 ppm: Leptosphaeria, read-out: LEPTNO in vivo 1 Day Protectant
# [7] = test system: Stagonospora nodorum (Leptosphaeria nodorum—LEPTNO); assay: In vitro fungal growth inhibition, Stagonospora nodorum (LEPTNO); type: cell-based; conditions: Leptosphaeria, read-out: LEPTNO in vitro Growth Inhibition
# [8] = test system: Magnaporthe grisea (Pyricularia oryzae—PYRIOR); assay: microbe, parasite or virus in culture; type: cell-based; conditions: Pyricularia oryzae, read-out: PYRIOR in vitro Growth Inhibition
# [9] = 100 ppm spray, 24 hour protectant, wheat, control of fungal infection vs untreated plants
# [10] = Zymoseptoria tritici, 24 h, 100 ppm spray, 24 hour protectant, wheat; control of fungal infection vs untreated plants; read-out: SEPTTR in vivo 1 Day Protectant
# [11] = 100 ppm spray, wheat, 24 hour protectant, control of fungal infection vs untreated plants
# [12] = Zymoseptoria tritici, 24 h, 100 ppm spray, wheat, 24 hour protectant; control of fungal infection vs untreated plants; read-out: SEPTTR in vivo 1 Day Protectant
SMILES,inhibition at 25 ppm [1],inhibition at 25 ppm [2],inhibition at 25 ppm ([4]; 25 ppm in growth medium),melting point,inhibition at 25 ppm (Ustilago maydis (USTIMA)),pest or weed control at 100 ppm [5],inhibition at 25 ppm ([7]; 25 ppm in growth medium),inhibition at 25 ppm [8],"pest or weed control at 100 ppm [3, 11]",pest or weed control at 100 ppm (Septoria tritici—SEPTTR; [12]),pest or weed control at 100 ppm (Erysiphe graminis—ERYSGT; [11]),"LEPTNO in vivo 1 Day Protectant [6, 11]",further results
COc1ccnc(C(=O)NC2CCN(Cc3ccc(C)cc3)CC2)c1O [Compound 306],< 80%,< 80%,< 80%,150 to 152 °C,< 80%,< 25%,< 80%,< 80%,–,–,–,–,"pest or weed control at 100 ppm [3, 9]: < 25%; pest or weed control at 100 ppm (Septoria tritici—SEPTTR; [10]): 25 to 74%; pest or weed control at 100 ppm (Erysiphe graminis—ERYSGT; [9]): < 25%; pest or weed control at 100 ppm [6, 9]: < 25%"
Br.COc1ccnc(C(=O)NC2C[C@@H](Cc3ccccc3)O[C@@H](C)C2)c1O (stereo partly drawn) [Compound 311],< 80%,< 80%,–,156 to 158 °C,< 80%,< 25%,–,< 80%,–,–,–,–,pest or weed control at 100 ppm ([3]; 24 h): 25 to 74%; inhibition at 25 ppm [4]: < 80%; SEPTTR in vivo 1 Day Protectant (Septoria tritici—SEPTTR; in vivo): + +; pest or weed control at 100 ppm (Erysiphe graminis—ERYSGT; 24 h): < 25%; pest or weed control at 100 ppm ([6]; 24 h): 25 to 74%; inhibition at 25 ppm [7]: < 80%
COc1ccnc(C(=O)N[C@H]2CO[C@](C)(C(C)CC3=C(C)CCCC3(C)C)OC2)c1O (stereo partly drawn) [Compound 319],< 80%,< 80%,< 80%,139 to 140 °C,< 80%,< 25%,< 80%,< 80%,–,–,–,–,"PUCCRT in vivo 1 Day Protectant [3, 9]: + +; pest or weed control at 100 ppm (Septoria tritici—SEPTTR; [10]): 25 to 74%; pest or weed control at 100 ppm (Erysiphe graminis—ERYSGT; [9]): 25 to 74%; pest or weed control at 100 ppm [6, 9]: < 25%"
COc1ccnc(C(=O)NC2CC3OC2C(C)C(OC(=O)C(C)C)C3C)c1O (stereo not drawn) [Compound 320],< 80%,< 80%,< 80%,108.5 to 109.5 °C,< 80%,< 25%,< 80%,< 80%,–,–,–,–,"pest or weed control at 100 ppm [3, 9]: < 25%; pest or weed control at 100 ppm (Septoria tritici—SEPTTR; [10]): 25 to 74%; pest or weed control at 100 ppm (Erysiphe graminis—ERYSGT; [9]): < 25%; pest or weed control at 100 ppm [6, 9]: 25 to 74%"
COc1ccnc(C(=O)NC2CSCC(c3ccccc3)C2)c1O (stereo not drawn) [Compound 324],> 80%,> 80%,> 80%,141 to 143 °C,> 80%,< 25%,> 80%,< 80%,–,–,–,–,"pest or weed control at 100 ppm [3, 9]: 25 to 74%; pest or weed control at 100 ppm (Septoria tritici—SEPTTR; [10]): 25 to 74%; pest or weed control at 100 ppm (Erysiphe graminis—ERYSGT; [9]): 25 to 74%; LEPTNO in vivo 1 Day Protectant [6, 9]: + +"
COc1ccnc(C(=O)NC2COC(=O)C[C@H](NC(=O)OCc3ccccc3)C(=O)OC2)c1O (stereo partly drawn) [Compound 376],< 80%,< 80%,< 80%,190 to 192 °C,< 80%,< 25%,< 80%,< 80%,< 25%,25 to 74%,25 to 74%,–,"pest or weed control at 100 ppm [6, 11]: 25 to 74%"
COc1ccnc(C(=O)NC2COC(=O)[C@H]3CCCC[C@@H]3C(=O)OC2)c1O [Compound 377],< 80%,> 80%,< 80%,234 to 235 °C,< 80%,< 25%,< 80%,< 80%,< 25%,< 25%,< 25%,–,"pest or weed control at 100 ppm [6, 11]: 25 to 74%"
COc1ccnc(C(=O)N[C@H]2CC(=O)OCC(NC(=O)OC(C)(C)C)COC2=O)c1O (stereo partly drawn) [Compound 379],< 80%,< 80%,< 80%,118 to 121 °C,< 80%,< 25%,< 80%,< 80%,25 to 74%,25 to 74%,25 to 74%,–,"pest or weed control at 100 ppm [6, 11]: 25 to 74%"
COc1ccnc(C(=O)NC2COC(=O)CC3(CCCCC3)CC(=O)OC2)c1O [Compound 380],< 80%,< 80%,< 80%,107 to 108 °C,< 80%,< 25%,< 80%,< 80%,< 25%,< 25%,25 to 74%,–,"pest or weed control at 100 ppm [6, 11]: 25 to 74%"
COc1ccnc(C(=O)N[C@H]2COC(=O)[C@H](Cc3ccccc3)[C@@H](OCC(C)C)[C@H](C)OC2=O)c1O [Compound 384],< 80%,< 80%,> 80%,172 to 174 °C,< 80%,< 25%,> 80%,> 80%,25 to 74%,25 to 74%,–,+ +,ERYSGT in vivo 1 Day Protectant (Erysiphe graminis—ERYSGT; [11]): + +
COc1ccnc(C(=O)N[C@H]2COC(=O)[C@H](Cc3ccccc3)[C@@H](OC(C)=O)[C@H](C)OC2=O)c1O [Compound 385],< 80%,< 80%,> 80%,194 to 196 °C,< 80%,25 to 74%,> 80%,< 80%,25 to 74%,25 to 74%,< 25%,+ +,–
COc1ccnc(C(=O)N[C@H]2COC(=O)[C@H](Cc3ccccc3)[C@@H](OC(=O)C(C)(C)C)[C@H](C)OC2=O)c1O [Compound 388],< 80%,< 80%,> 80%,212 to 214 °C,< 80%,< 25%,> 80%,< 80%,25 to 74%,25 to 74%,< 25%,+ +,–
COc1ccnc(C(=O)N[C@H]2COC(=O)[C@H](Cc3ccccc3)[C@@H](OC(=O)c3ccccc3)[C@H](C)OC2=O)c1O [Compound 394],< 80%,< 80%,> 80%,181 to 185 °C,< 80%,< 25%,> 80%,< 80%,25 to 74%,25 to 74%,< 25%,+ +,–
COc1ccnc(C(=O)N[C@H]2COC(=O)[C@H](CC3CCCC3)[C@@H](OC(=O)C(C)C)[C@H](C)OC2=O)c1O [Compound 402],< 80%,< 80%,< 80%,182 to 184 °C,< 80%,< 25%,> 80%,< 80%,25 to 74%,25 to 74%,–,+ +,ERYSGT in vivo 1 Day Protectant (Erysiphe graminis—ERYSGT; [11]): + +
COc1ccnc(C(=O)N[C@H]2COC(=O)[C@H](Oc3ccccc3)[C@@H](OC(=O)C(C)C)[C@H](C)OC2=O)c1O [Compound 403],< 80%,< 80%,> 80%,194 to 195 °C,< 80%,< 25%,> 80%,< 80%,25 to 74%,25 to 74%,< 25%,+ +,–
